Experimental data from patent US20140171434A1, “SUBSTITUTED IMIDAZOPYRIDINES AND IMIDAZOPYRIDAZINES AND THE USE THEREOF” (BAYER PHARMA AKTIENGESSELLSCHAFT, priority 2011, published 2014).

Key:
[1] = tested on: recombinant guanylate cyclase reporter cell line; assay: Effect on a recombinant guanylate cyclase reporter cell line; assay type: cell-based
Procedure: The cellular activity of the compounds according to the invention is determined using a recombinant guanylate cyclase reporter cell line, as described in F. Wunder et al., Anal. Biochem. 339, 104-112 (2005).

rabbit aorta rings = assay: Vasorelaxant action in vitro (phenylephrine-contracted rabbit aorta rings); details: Oryctolagus cuniculus, phenylephrine contraction, 0.1% DMSO, read-out: IC50 (concentration needed to reduce the phenylephrine contraction by 50%)
Procedure: Rabbits are stunned by a blow to the neck and exsanguinated. The aorta is removed, freed from adhering tissue and divided into rings of a width of 1.5 mm. The rings are placed individually under an initial tension in 5 ml organ baths with Krebs-Henseleit solution which is at 37° C., is gassed with carbogen and has the following composition (in each case mM): sodium chloride 119; potassium chloride: 4.8; calcium chloride dihydrate: 1; magnesium sulfate heptahydrate: 1.4; potassium dihydrogenphosphate: 1.2; sodium bicarbonate: 25; glucose: 10. The contractile force is determined with Statham UC2 cells, amplified and digitalized using A/D transducers (DAS 1802 HC, Keithley Instruments Munich), and recorded in parallel on linear recorders. To obtain a contraction, phenylephrine is added to the bath cumulatively in increasing concentration. After several control cycles, the substance to be investigated is added in each further run in increasing dosage in each case, and the height of the contraction achieved is compared with the height of the contraction reached in the last preceding run. This is used to calculate the concentration needed to reduce the magnitude of the control value by 50% (IC50 value). The standard administration volume is 5 μl; the DMSO content in the bath solution corresponds to 0.1%.

[2] = Pharmacokinetic parameters following intravenous administration to rats; assay type: in vivo, male Wistar rats; details: rat, 0.3 mg/kg intravenous; for MRT / half-life: male, Wistar, plasma; for MRT: read-out: Mean residence time; for half-life: read-out: Terminal half-life (converted)
Procedure: The pharmacokinetic parameters of the compounds of the formula (I) according to the invention are determined in male Wistar rats. The administration volume is 5 ml/kg. Intravenous administration is by means of a species-specific plasma/DMSO formulation (99/1). The taking of blood from rats is simplified by inserting a silicone catheter into the right Vena jugularis externa prior to substance administration. The surgical intervention takes place one day prior to the experiment with isofluran anesthesia and administration of an analgetic (atropine/rimadyl (3/1) 0.1 ml s.c.). Substance administration is as an i.v. bolus. Removal of blood from the rats is after 0.033, 0.083, 0.17, 0.5, 1, 2, 3, 4, 6, 8, 24 and 27 hours. The blood is removed into heparinized tubes. The blood plasma is then obtained by centrifugation; if required, it can be stored at −20° C. until further processing.
An internal standard (ZK 228859) is added to the samples of the compounds of the formula (I) according to the invention, calibration samples and QCs, and the protein is precipitated using excess acetonitrile. After addition of an ammonium acetate buffer (0.01 M, pH 6.8) and subsequent vortexing, the mixture is centrifuged at 1000 g and the supernatant is examined by LC-MS/MS (API 4000, AB Sciex). Chromatographic separation is carried out on an Agilent 1100-HPLC. The injection volume is 20 μl. The separation column used is a Phenomenex Gemini 5μ C18 110A 50×3 mm, adjusted to a temperature of 40° C. A binary mobile phase gradient at 500 μl/min is used (A: 0.01M ammonium acetate buffer pH 6.8, B: 0.1% formic acid in acetonitrile): 0 min (90% A), 1 min (90% A), 3 min (10% A), 4 min (10% A), 4.50 min (90% A), 6 min (90% A). The temperature of the Turbo V ion source is 400° C. The following MS instrument parameters are used: curtain gas 15 units, ion spray voltage 4.8 kV, gas 1 50 units, gas 2 40 units, CAD gas 8 units. The substances are quantified by peak heights or areas using extracted ion chromatograms of specific MRM experiments.
The plasma concentration/time plots determined are used to calculate the pharmacokinetic parameters such as AUC, Cmax, t1/2 (terminal half life), MRT (mean residence time) and CL (clearance), using the validated pharmacokinetic calculation program KinEx (Vers.3).
Since the substance quantification is performed in plasma, it is necessary to determine the blood/plasma distribution of the substance in order to be able to adjust the pharmacokinetic parameters correspondingly. For this purpose, a defined amount of substance is incubated in heparinized whole blood of the species in question in a rocking roller mixer for 20 min. After centrifugation at 1000 g, the plasma concentration is measured (see above) and determined by calculating the quotient of the cblood/cplasma values.
Following intravenous administration of 0.3 mg/kg of representative compounds according to the invention to rats, the data listed in Table 3 were obtained: […]

SMILES | IC50 (rabbit aorta rings) [nM] | MRT [2] [h] | half-life [2] [h] | CLblood [2] [mL/min/kg] | MEC (minimum effective concentration) [1] [µM]
CC1(C)C(=O)Nc2nc(-c3nc(Cc4ccccc4F)n4ncccc34)nc(I)c21 [Example 1, 2-[7-(2-Fluorobenzyl)imidazo[1,5-b]pyridazin-5-yl]-4-iodo-5,5-dimethyl-5,7-dihydro-6H-pyrrolo[2,3-d]pyrimidin-6-one] |  |  |  |  | 0.1
CC1(C)C(=O)Nc2nc(-c3nc(Cc4ccccc4F)n4ncccc34)ncc21 [Example 3, 2-[7-(2-Fluorobenzyl)imidazo[1,5-b]pyridazin-5-yl]-5,5-dimethyl-5,7-dihydro-6H-pyrrolo[2,3-d]pyrimidin-6-one] | 72 |  |  |  | 0.03
CC1(C)C(=O)Nc2nc(-c3nc(Cc4ccccc4F)n4ncccc34)nnc21 [Example 4, 3-[7-(2-Fluorobenzyl)imidazo[1,5-b]pyridazin-5-yl]-7,7-dimethyl-5,7-dihydro-6H-pyrrolo[2,3-e][1,2,4]triazin-6-one] | 42 |  |  |  | 0.03
CC1(C)C(=O)Nc2nc(-c3nc(Cc4c(F)ccc(F)c4F)n4cc(Cl)ccc34)ncc21 [Example 7, 2-[6-Chloro-3-(2,3,6-trifluorobenzyl)imidazo[1,5-a]pyridin-1-yl]-5,5-dimethyl-5,7-dihydro-6H-pyrrolo[2,3-d]pyrimidin-6-one] |  |  |  |  | 0.01

Second part, led by results:

IC50 (rabbit aorta rings) [nM] | MRT [2] [h] | half-life [2] [h] | CLblood [2] [mL/min/kg] | SMILES | MEC (minimum effective concentration) [1] [µM]
30 | 9.4 | 7.2 | 0.5 | CC1(C)C(=O)Nc2nc(-c3nc(Cc4c(F)ccc(F)c4F)n4cc(Cl)ccc34)nnc21 [Example 11, 3-[6-Chloro-3-(2,3,6-trifluorobenzyl)imidazo[1,5-a]pyridin-1-yl]-7,7-dimethyl-5,7-dihydro-6H-pyrrolo[2,3-e][1,2,4]triazin-6-one] | 0.03
276 | 4.6 | 5.2 | 2.67 | CC1(C)C(=O)Nc2nc(-c3nc(CCC(F)(F)C(F)(F)F)n4cc(F)ccc34)nnc21 [Example 12, 3-[6-Fluoro-3-(3,3,4,4,4-pentafluorobutyl)imidazo[1,5-a]pyridin-1-yl]-7,7-dimethyl-5,7-dihydro-6H-pyrrolo[2,3-e][1,2,4]triazin-6-one] | 1.0
